# Source: patent US4199598A, “Method of treating noradrenaline dysfunction or for dopamine-β-hydroxylase inhibition” (Richter Gedeon Vegyeszeti Gyar Rt., priority 1976, dated 1980)
# Assays:
# [1] = test system: dopamine-β-hydroxylase; assay: Noradrenaline content of heart (dopamine-β-hydroxylase inhibiting effect); format: in vivo, male Wister rats; conditions: Rattus norvegicus, ip, read-out: Amine level, heart NA (noradrenaline)
# Procedure: (§1) The dopamine-β-hydroxylase inhibiting effects of the compounds according to the invention were examined by the following tests:
# (§2) The tests were performed on male Wister rats weighing 150 to 200 g. The dopamine-β-hydroxylase inhibiting effects of the compounds were evaluated by determining the change of noradrenaline, dopamine and adrenaline levels of the cerebrum, heart, spleen and adrenal gland. The serotonine and 5-hydroxy-indolyl-acetic acid levels of the cerebrum were also determined. The measurements were performed as follows:
# (§3) The animals were decapitated, the cerebrum, heart, spleen and adrenal gland were removed quickly, and the organs were frozen by placing them onto a metal sheet cooled with dry ice. The frozen organs were stored for a maximum of one night at -20° C.
# (§4) Determination of the noradrenaline content of heart and spleen
# (§5) The organs were weighed in frozen state and then homogenized in 5.0 ml of 0.4 N perchloric acid containing 0.05% of EDTA-Na2 and 0.1% of Na2 S2 O5. The homogenized mixtures were centrifuged as described above for the treatment of adrenal gland, the supernatants were decanted, and the pH was adjusted to 8.0±0.1 with a 0.1 molar tris buffer containing 20 g/l of NaOH and 25 g/l of EDTA-Na2. 100 mg of prepared Al2 O3 (Anton et al: J. Pharm. Ther., Vol. 138, p. 360, 1962) were added to the samples, and the mixtures were shaken mechanically for 20 minutes. Thereafter the Al2 O3 were washed with 2.10 ml of distilled water, and the noradrenaline was eluted with 1.0 ml of 0.05 N perchloric acid. 0.5 ml samples of the eluate were applied for the determination of noradrenaline.
# (§6) Noradrenaline was determined according to the method of Shellenberger et al (Anal. Biochem., Vol. 39, p. 356, 1971), with the following modifications of the basic procedure: 0.5 ml of 0.1 molar Na-K-phosphate buffer, containing 9 g/l of EDTA-Na2, were added to 0.5 ml of the eluate, and the catecholamines (noradrenaline in the examination of heart and spleen and noradrenaline and dopamine in the examination of the cerebrum) were oxidized with 0.1 ml of a 0.1 N iodine solution in 5% potassium iodide. […] Thereafter the samples were placed for 5 minutes in a drying oven heated to 100° C., and then the samples were cooled with ice water. The fluorescence of noradrenaline was measured with an OPTON spectrophotometer at wavelengths of 390 nm (excitation) and 490 nm (emission).
# (§7) In the tests disulfiram, 2,2-dipyridyl, bis(1-methyl-4-homopiperazinyl-thiocarbonyl)-disulfide, sodium diethyldithiocarbamate and N-phenyl-N'-(2-thiazolyl)-thiourea were used as reference substances. The values indicated in Table 1 are percentages in relation to the amine levels of the controls measured in the same tests (± Standard Error). The statistical calculations were performed on a TPA/i type computer, using Student's test.
# [2] = test system: dopamine-β-hydroxylase; assay: Adrenaline content of adrenal gland (dopamine-β-hydroxylase inhibiting effect); format: in vivo, male Wister rats; conditions: Rattus norvegicus, ip, read-out: Amine level, adrenal gland AD (adrenaline)
# Procedure: as §1, §2, §3
# Determination of the adrenaline content of adrenal gland
# The adrenal glands were freed from fat and homogenized in 3.0 ml of ice-cold 0.4 N perchloric acid. The homogenized mixtures were centrifuged for 10 minutes at 0° C. with a speed of 3200 r.p.m. on a Janetzky K-70 type centrifuge. 0.05 ml samples were taken from the supernatant, and the adrenaline level was determined directly by the method of Laverty et al (Anal. Biochem., Vol. 22, p. 269, 1968).
# as §7
# [3] = test system: dopamine-β-hydroxylase; assay: Noradrenaline, dopamine, serotonine and 5-hydroxy-indolylacetic acid contents of cerebrum (dopamine-β-hydroxylase inhibiting effect); format: in vivo, male Wister rats; conditions: Rattus norvegicus, ip
# Procedure: as §1, §2, §3, §6
# Determination of the noradrenaline, dopamine, serotonine and 5-hydroxy-indolylacetic acid contents of cerebrum
# The brains were homogenized in 10 parts by volume of 0.4 N perchloric acid. The homogenized mixture was stored at -20° C. overnight; thereafter it was thawed and centrifuged as described above. A sample of homogenized mixture corresponding to 0.5 g of brain was removed, the pH of the sample was adjusted to 8.0±0.1 with 0.1 molar tris-buffer of the above composition, and the sample was processed as described above for the determination of the noradrenaline content of heart and spleen, with the difference that 1.5 ml of 0.05 N perchloric acid were applied as eluting agent. 0.5 ml of the eluate were applied to determine the noradrenaline and dopamine content. The measurement was performed as described above, with the difference that samples of 0.5 ml were applied for the recording of the fluorescence of noradrenaline. The residue was placed for 50 minutes into a drying oven heated to 100° C.; thereafter the sample was cooled with ice water, and the fluorescence of dopamine was recorded at wavelengths of 325 nm (excitation) and 380 nm (emission).
# In a further test series the serotonine and 5-hydroxy-indolylacetic acid contents were also determined, in addition to the determination of the noradrenaline and dopamine contents, from the same sample. In this instance the brains were homogenized in 10 ml of 75% ethanol, 0.2 ml of EDTA-Na2 and 5% of ascorbic acid were added to the homogenized mixtures, and the homogenized mixtures were maintained at -20° C. overnight. The mixtures were then centrifuged as described above, and 5.0 ml samples of the supernatant were removed. The samples were diluted with equal volumes of distilled water, and poured onto ion-exchange columns of 0.5×1.5 cm dimensions, filled with buffered Amberlite CG-30 (200 to 400 mesh). The columns were washed with 5 ml of distilled water followed with 1.0 ml of 0.2 N hydrochloric acid, and the first effluent and the aqueous wash were collected for the determination of 5-hydroxy-indolylacetic acid. Elution was continued with further 1.2 ml of 0.2 N hydrochloric acid in order to remove noradrenaline, dopamine and serotonine. Samples of 0.3 ml were used for the determinations. […]
# [4] = test system: dopamine-β-hydroxylase; assay: Noradrenaline content of spleen (dopamine-β-hydroxylase inhibiting effect); format: in vivo, male Wister rats; conditions: Rattus norvegicus, ip, read-out: Amine level, spleen NA (noradrenaline)
# Procedure: as §1, §2, §3, §4, §5, §6, §7
# [5] = test system: dopamine-β-hydroxylase; conditions: in words, prior art; cited from earlier work
# [6] = in vivo; conditions: mouse, ip
# [7] = rats, i.p., 4 hours, ± Standard Error
# [8] = rats, i.p., 200 mg/kg, 4 hours, ± Standard Error
# [9] = rats, i.p., 4 hours, ± Standard Error, read-out: Amine level, cerebrum DA (dopamine)
# [10] = rats, i.p., 4 hours, ± Standard Error, read-out: Amine level, cerebrum NA (noradrenaline)
# [11] = rats, i.p., 4 hours, ± Standard Error, read-out: Amine level, cerebrum SE (serotonine)
# [12] = rats, i.p., 200 mg/kg, 4 hours, ± Standard Error, read-out: Amine level, cerebrum DA (dopamine)
# [13] = rats, i.p., 200 mg/kg, 4 hours, ± Standard Error, read-out: Amine level, cerebrum NA (noradrenaline)
# [14] = rats, i.p., 200 mg/kg, 4 hours, ± Standard Error, read-out: Amine level, cerebrum SE (serotonine)
# [15] = 4 h, read-out: Amine level, cerebrum DA (dopamine)
# [16] = 4 h, read-out: Amine level, cerebrum NA (noradrenaline)
# [17] = rats, i.p., 200 mg/kg, 4 hours, ± Standard Error, read-out: Level, cerebrum 5-HIAA (5-hydroxy-indolylacetic acid)
# [18] = 4 h, read-out: Amine level, cerebrum SE (serotonine)
compound,measurement,setting,value
"CC(C)CCNC1=C(C(=S)S)CCC1 [Compound M-3, 2-(N-isoamyl)-amino-cyclopent-1-ene-dithiocarboxylic acid]",response vs control in vivo at 100 mg/kg,[1]; [7],86.9 ± 5.9%
same,response vs control in vivo at 200 mg/kg,[1]; [8],131 ± 4.4%
same,response vs control in vivo at 100 mg/kg,[2]; [7],86.2 ± 4.5%
same,response vs control in vivo at 200 mg/kg,[2]; [8],73.5 ± 2.2%
same,response vs control in vivo at 100 mg/kg,[3]; [9],103 ± 4.1%
same,response vs control in vivo at 100 mg/kg,[3]; [10],75.2 ± 1.7%
same,response vs control in vivo at 100 mg/kg,[3]; [11],108 ± 5.7%
same,response vs control in vivo at 200 mg/kg,[3]; [12],114 ± 2.7%
same,response vs control in vivo at 200 mg/kg,[3]; [13],68.8 ± 2.4%
same,response vs control in vivo at 200 mg/kg,[3]; [14],98.2 ± 3.9%
same,response vs control in vivo at 100 mg/kg,[4]; [7],48.2 ± 9.5%
same,response vs control in vivo at 200 mg/kg,[4]; [8],135 ± 17%
"CCN(CC)C(=S)S [DDC-Na, sodium diethyldithiocarbamate, reference compound]",response vs control in vivo at 400 mg/kg,[3]; [15],120%
same,response vs control in vivo at 400 mg/kg,[3]; [16],64.1%
NOCc1ccccc1 [Benzyloxyamine],dopamine-β-hydroxylase inhibiting effects,[5],exert dopamine-β-hydroxylase inhibiting effects
same,duration of activity,[5],exert their activities for a short period
CC(N)Cc1ccccc1 (stereo not drawn) [amphetamine],dopamine-β-hydroxylase inhibiting effects,[5],possess dopamine-β-hydroxylase inhibiting effects
"NC(CCCCNC1=C(C(=S)S)CCC1)C(=O)O (stereo not drawn) [Compound M-7, 2-[N-(5-carboxy-5-amino)-pentyl]-amino-cyclopent-1-ene-dithiocarboxylic ac id]",response vs control in vivo at 200 mg/kg,[1]; [8],95.6 ± 8.5%
same,response vs control in vivo at 200 mg/kg,[2]; [8],79.5 ± 6.5%
same,response vs control in vivo at 200 mg/kg,[3]; [12],106 ± 7.2%
same,response vs control in vivo at 200 mg/kg,[3]; [13],65.8 ± 3%
same,response vs control in vivo at 200 mg/kg,[3]; [14],99.7 ± 6.8%
same,response vs control in vivo at 200 mg/kg,[3]; [17],153 ± 13%
same,response vs control in vivo at 200 mg/kg,[4]; [8],85.3 ± 17.7%
same,LD50,[6],~900 mg/kg
"CCN(CC)C(=S)SSC(=S)N(CC)CC [DS, bis(diethylthiocarbamoyl)-disulfide, reference compound]",response vs control in vivo at 200 mg/kg,[1]; 4 h,98%
same,response vs control in vivo at 400 mg/kg,[1]; 4 h,102%
same,response vs control in vivo at 200 mg/kg,[2]; 4 h,52%
same,response vs control in vivo at 400 mg/kg,[2]; 4 h,66%
same,dopamine-β-hydroxylase inhibiting effects,[5],strong dopamine-β-hydroxylase inhibiting effects
same,response vs control in vivo at 200 mg/kg,[3]; [15],111%
same,response vs control in vivo at 400 mg/kg,[3]; [15],112%
same,response vs control in vivo at 200 mg/kg,[3]; [16],22.5%
same,response vs control in vivo at 400 mg/kg,[3]; [16],24.1%
same,response vs control in vivo at 200 mg/kg,[3]; [18],122%
same,response vs control in vivo at 400 mg/kg,[3]; [18],117%
"S=C(S)C1=C(NC2CCCCC2)CCC1 [Compound M-6, 2-(N-cyclohexyl)-amino-cyclopent-1-ene-dithiocarboxylic acid]",response vs control in vivo at 200 mg/kg,[1]; [8],92.7 ± 6.5%
same,response vs control in vivo at 200 mg/kg,[2]; [8],94.9 ± 3.4%
same,response vs control in vivo at 200 mg/kg,[3]; [12],107 ± 5.6%
same,response vs control in vivo at 200 mg/kg,[3]; [13],40.7 ± 1.1%
same,response vs control in vivo at 200 mg/kg,[3]; [14],101 ± 5.1%
same,response vs control in vivo at 200 mg/kg,[3]; [17],150 ± 8.5%
same,response vs control in vivo at 200 mg/kg,[4]; [8],98.1 ± 13.7%
same,LD50,[6],> 1000 mg/kg
"NC(CCCNC1=C(C(=S)S)CCC1)C(=O)O (stereo not drawn) [Compound M-5, 2-[N-(4-carboxy-4-amino)-butyl]-amino-cyclopent-1-ene-dithiocarboxylicacid]",response vs control in vivo at 100 mg/kg,[1]; [7],98.4 ± 5.4%
same,response vs control in vivo at 200 mg/kg,[1]; [8],75 ± 10.6%
same,response vs control in vivo at 100 mg/kg,[2]; [7],69.4 ± 4%
same,response vs control in vivo at 200 mg/kg,[2]; [8],70.7 ± 3.3%
same,response vs control in vivo at 100 mg/kg,[3]; [9],100 ± 4.8%
same,response vs control in vivo at 100 mg/kg,[3]; [10],81.7 ± 4.5%
same,response vs control in vivo at 100 mg/kg,[3]; [11],110 ± 4.1%
same,response vs control in vivo at 200 mg/kg,[3]; [12],102 ± 1.8%
same,response vs control in vivo at 200 mg/kg,[3]; [13],69.3 ± 2.9%
same,response vs control in vivo at 200 mg/kg,[3]; [14],114 ± 3.6%
same,response vs control in vivo at 200 mg/kg,[3]; [17],141 ± 10%
same,response vs control in vivo at 100 mg/kg,[4]; [7],76.4 ± 11.1%
same,response vs control in vivo at 200 mg/kg,[4]; [8],67.1 ± 6.2%
same,LD50,[6],~700 mg/kg
NNCc1ccccc1 [benzylhydrazine],dopamine-β-hydroxylase inhibiting effects,[5],exert dopamine-β-hydroxylase inhibiting effects
same,duration of activity,[5],exert their activities for a short period
O=C(CO)c1coc(=O)c2c(O)cccc12 [Oosponol],dopamine-β-hydroxylase inhibiting effects,[5],strong dopamine-β-hydroxylase inhibiting effects
Cn1cc[nH]c1=S [methimazol],dopamine-β-hydroxylase inhibiting effects,[5],possess dopamine-β-hydroxylase inhibiting effects
CCN(CC)C(=S)S [diethyl dithiocarbamate],dopamine-β-hydroxylase inhibiting effects,[5],strong dopamine-β-hydroxylase inhibiting effects
"CCCCc1ccc(C(=O)O)nc1 [Fusaric acid, 5-butyl-picolinic acid]",dopamine-β-hydroxylase inhibiting effects,[5],strong dopamine-β-hydroxylase inhibiting effects
"S=C(Nc1ccccc1)Nc1nccs1 [Compound U-14624, N-phenyl-N'-(2-thiazolyl)-thiourea, reference compound]",response vs control in vivo at 200 mg/kg,[1]; 4 h,106%
same,response vs control in vivo at 200 mg/kg,[2]; 4 h,72%
same,response vs control in vivo at 200 mg/kg,[3]; [15],121%
same,response vs control in vivo at 200 mg/kg,[3]; [16],31.6%
same,response vs control in vivo at 200 mg/kg,[3]; [18],137%
same,response vs control in vivo at 200 mg/kg,"[3]; 4 h, read-out: Level, cerebrum 5-HIAA (5-hydroxy-indolylacetic acid)",175%
same,response vs control in vivo at 200 mg/kg,[4]; 4 h,111%
"NNc1nncc2ccccc12 [Hydralazine, hydralazine]",dopamine-β-hydroxylase inhibiting effects,[5],possess dopamine-β-hydroxylase inhibiting effects
